Earlier results as cited in patent US7727757B2, “Methods of eliciting antiviral immune responses utilizing viral particles comprising photoinactivated reverse transcriptase” (priority 1998, dated 2010).
“Also recorded” adds a separate entry of the source.

Legend:
[1] = target: HIV-1 reverse transcriptase (Human immunodeficiency virus type 1 group M subtype B, UniProt P04585); details: for inhibition of RT (in words): prior-art statement; for IC50: value stated without method or source, used to set the incubation concentration, read-out: IC50 (50% inhibitory concentration)
HIV = details: short exposure, without photoinactivation
HIV infected cells = details: compound provided to HIV infected cells

| Compound | inhibition of RT (in words) [1] | IC50 [1] | HIV infectivity after exposure of isolated virus (HIV) | inhibition of ERT in HIV virions (ERT in HIV virions) | infectivity of nascent virus from HIV infected cells (HIV infected cells) |
| --- | --- | --- | --- | --- | --- |
| CCN1c2cc(N=[N+]=[N-])ccc2N(C)C(=O)c2cccnc21 [azido dipyridodiazepinona, 9-Azido-5,6-dihydro-11-ethyl-6-methyl-11H-pyrido[2,3-b][1,5]benzodiazepin-5-one] | potent inhibitors of RT | 160 nM | – | – | – |
| CC(C)=CCOc1cc(NC(=S)c2ccoc2C)ccc1Cl [UC781™, N-[4-chloro-3-(3-methyl-2-butenyloxy)phenyl]-2-methyl-3-furanocarbothiamide] | potent inhibitors of RT | 0.2 nM | eliminate HIV infectivity | inhibit ERT in HIV virions | production of noninfectious nascent virus; also recorded: inactivate nascent virus from HIV-infected cells |
